Key:
JAK2 = JAK2 (Homo sapiens (Human), UniProt O60674); assay: JAK2 Z-Lyte biochemical assay; details: commercial JAK2 Z-Lyte assay from Invitrogen
Procedure: The JAK2 Z-Lyte biochemical assay was performed according to manufacturer's instructions (Life Technologies).

ABL1(Q252H) = ABL1(Q252H) (Homo sapiens (Human), UniProt P00519, Q252H); assay: KINOMEscan kinase selectivity profiling; type: binding; details: read-out: Ambit KINOMEscan of compound I-5 at 10 μM (percent control %)
ABL1(T315I) = ABL1(T315I) (Homo sapiens (Human), UniProt P00519, T315I); assay: KINOMEscan kinase selectivity profiling; type: binding; details: read-out: Ambit KINOMEscan of compound I-5 at 10 μM (percent control %)
ABL2 = ABL2 (Homo sapiens (Human), UniProt P42684); assay: KINOMEscan kinase selectivity profiling; type: binding; details: read-out: Ambit KINOMEscan of compound I-5 at 10 μM (percent control %)
BRAF(V600E) = BRAF(V600E) (Homo sapiens (Human), UniProt P15056, V600E); assay: KINOMEscan kinase selectivity profiling; type: binding; details: read-out: Ambit KINOMEscan of compound I-5 at 10 μM (percent control %)
CDC2L2 = CDC2L2 (Homo sapiens (Human), UniProt Q9UQ88); assay: KINOMEscan kinase selectivity profiling; type: binding; details: read-out: Ambit KINOMEscan of compound I-5 at 10 μM (percent control %)
CDKL3 = CDKL3 (Homo sapiens (Human), UniProt Q8IVW4); assay: KINOMEscan kinase selectivity profiling; type: binding; details: read-out: Ambit KINOMEscan of compound I-5 at 10 μM (percent control %)
CIT = CIT (Homo sapiens (Human), UniProt O14578); assay: KINOMEscan kinase selectivity profiling; type: binding; details: read-out: Ambit KINOMEscan of compound I-5 at 10 μM (percent control %)
CSF1R = CSF1R (Homo sapiens (Human), UniProt P07333); assay: KINOMEscan kinase selectivity profiling; type: binding; details: read-out: Ambit KINOMEscan of compound I-5 at 10 μM (percent control %)
Chain of CSF1R (P07333 20-972): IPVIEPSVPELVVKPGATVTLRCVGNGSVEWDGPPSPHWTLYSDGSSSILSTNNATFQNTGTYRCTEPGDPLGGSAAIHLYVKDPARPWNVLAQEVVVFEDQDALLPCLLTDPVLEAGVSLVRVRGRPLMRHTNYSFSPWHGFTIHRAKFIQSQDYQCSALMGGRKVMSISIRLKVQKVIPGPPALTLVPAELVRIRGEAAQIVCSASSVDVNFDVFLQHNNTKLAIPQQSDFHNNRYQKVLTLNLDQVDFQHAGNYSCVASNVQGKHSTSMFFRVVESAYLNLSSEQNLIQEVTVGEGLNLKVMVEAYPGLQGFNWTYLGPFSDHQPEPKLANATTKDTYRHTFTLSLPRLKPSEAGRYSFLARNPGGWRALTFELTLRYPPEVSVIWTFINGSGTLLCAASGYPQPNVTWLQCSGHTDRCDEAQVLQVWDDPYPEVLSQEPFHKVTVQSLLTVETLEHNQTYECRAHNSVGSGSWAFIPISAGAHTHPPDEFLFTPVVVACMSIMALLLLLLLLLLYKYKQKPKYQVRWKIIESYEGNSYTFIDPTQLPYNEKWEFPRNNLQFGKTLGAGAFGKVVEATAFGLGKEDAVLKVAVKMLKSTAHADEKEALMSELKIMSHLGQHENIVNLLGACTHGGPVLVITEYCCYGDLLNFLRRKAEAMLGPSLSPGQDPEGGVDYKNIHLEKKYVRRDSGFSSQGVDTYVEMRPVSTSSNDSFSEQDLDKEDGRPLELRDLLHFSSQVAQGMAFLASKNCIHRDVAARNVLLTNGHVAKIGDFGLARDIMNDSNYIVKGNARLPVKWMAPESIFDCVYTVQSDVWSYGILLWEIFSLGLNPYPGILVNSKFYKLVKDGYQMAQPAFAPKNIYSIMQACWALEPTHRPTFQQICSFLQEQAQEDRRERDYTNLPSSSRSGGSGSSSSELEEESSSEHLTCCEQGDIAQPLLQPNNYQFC

EPHA4 = EPHA4 (Homo sapiens (Human), UniProt P54764); assay: KINOMEscan kinase selectivity profiling; type: binding; details: read-out: Ambit KINOMEscan of compound I-5 at 10 μM (percent control %)
Chain of EPHA4 (P54764 20-986): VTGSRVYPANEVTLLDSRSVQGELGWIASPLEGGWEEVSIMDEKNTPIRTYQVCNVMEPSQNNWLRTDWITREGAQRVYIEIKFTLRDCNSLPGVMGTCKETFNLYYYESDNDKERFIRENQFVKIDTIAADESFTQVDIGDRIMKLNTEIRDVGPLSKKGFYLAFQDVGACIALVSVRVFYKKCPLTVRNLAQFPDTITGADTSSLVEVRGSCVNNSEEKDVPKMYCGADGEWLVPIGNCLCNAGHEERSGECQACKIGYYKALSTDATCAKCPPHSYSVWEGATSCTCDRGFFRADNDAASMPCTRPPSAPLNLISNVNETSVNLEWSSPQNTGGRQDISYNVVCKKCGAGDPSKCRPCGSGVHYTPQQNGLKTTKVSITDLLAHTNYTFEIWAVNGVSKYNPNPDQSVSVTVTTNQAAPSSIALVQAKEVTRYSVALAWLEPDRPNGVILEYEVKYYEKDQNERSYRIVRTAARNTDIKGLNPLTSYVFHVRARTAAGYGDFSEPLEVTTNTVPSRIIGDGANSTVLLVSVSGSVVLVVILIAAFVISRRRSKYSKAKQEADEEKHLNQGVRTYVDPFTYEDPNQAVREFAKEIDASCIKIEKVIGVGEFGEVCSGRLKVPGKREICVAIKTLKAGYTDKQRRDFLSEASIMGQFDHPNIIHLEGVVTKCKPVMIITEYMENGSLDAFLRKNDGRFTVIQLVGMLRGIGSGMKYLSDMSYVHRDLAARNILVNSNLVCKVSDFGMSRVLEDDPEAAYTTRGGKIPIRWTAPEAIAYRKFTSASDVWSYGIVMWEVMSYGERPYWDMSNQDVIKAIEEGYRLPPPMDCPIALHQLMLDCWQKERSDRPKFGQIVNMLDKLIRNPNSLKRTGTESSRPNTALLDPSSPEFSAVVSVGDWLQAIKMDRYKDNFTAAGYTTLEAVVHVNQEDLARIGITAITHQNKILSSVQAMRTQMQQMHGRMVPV

EPHA6 = EPHA6 (Homo sapiens (Human), UniProt Q9UF33); assay: KINOMEscan kinase selectivity profiling; type: binding; details: read-out: Ambit KINOMEscan of compound I-5 at 10 μM (percent control %)
EPHA8 = EPHA8 (Homo sapiens (Human), UniProt P29322); assay: KINOMEscan kinase selectivity profiling; type: binding; details: read-out: Ambit KINOMEscan of compound I-5 at 10 μM (percent control %)
EPHB1 = EPHB1 (Homo sapiens (Human), UniProt P54762); assay: KINOMEscan kinase selectivity profiling; type: binding; details: read-out: Ambit KINOMEscan of compound I-5 at 10 μM (percent control %)
EPHB2 = EPHB2 (Homo sapiens (Human), UniProt P29323); assay: KINOMEscan kinase selectivity profiling; type: binding; details: read-out: Ambit KINOMEscan of compound I-5 at 10 μM (percent control %)
EPHB4 = EPHB4 (Homo sapiens (Human), UniProt P54760); assay: KINOMEscan kinase selectivity profiling; type: binding; details: read-out: Ambit KINOMEscan of compound I-5 at 10 μM (percent control %)
FES = FES (Homo sapiens (Human), UniProt P07332); assay: KINOMEscan kinase selectivity profiling; type: binding; details: read-out: Ambit KINOMEscan of compound I-5 at 10 μM (percent control %)
FGR = FGR (Homo sapiens (Human), UniProt P09769); assay: KINOMEscan kinase selectivity profiling; type: binding; details: read-out: Ambit KINOMEscan of compound I-5 at 10 μM (percent control %)
FLT4 = FLT4 (Homo sapiens (Human), UniProt P35916); assay: KINOMEscan kinase selectivity profiling; type: binding; details: read-out: Ambit KINOMEscan of compound I-5 at 10 μM (percent control %)
HPK1 = HPK1 (Homo sapiens (Human), UniProt Q92918); assay: KINOMEscan kinase selectivity profiling; type: binding; details: read-out: Ambit KINOMEscan of compound I-5 at 10 μM (percent control %)
INSRR = INSRR (Homo sapiens (Human), UniProt P14616); assay: KINOMEscan kinase selectivity profiling; type: binding; details: read-out: Ambit KINOMEscan of compound I-5 at 10 μM (percent control %)
Chain of INSRR (P14616 27-1297): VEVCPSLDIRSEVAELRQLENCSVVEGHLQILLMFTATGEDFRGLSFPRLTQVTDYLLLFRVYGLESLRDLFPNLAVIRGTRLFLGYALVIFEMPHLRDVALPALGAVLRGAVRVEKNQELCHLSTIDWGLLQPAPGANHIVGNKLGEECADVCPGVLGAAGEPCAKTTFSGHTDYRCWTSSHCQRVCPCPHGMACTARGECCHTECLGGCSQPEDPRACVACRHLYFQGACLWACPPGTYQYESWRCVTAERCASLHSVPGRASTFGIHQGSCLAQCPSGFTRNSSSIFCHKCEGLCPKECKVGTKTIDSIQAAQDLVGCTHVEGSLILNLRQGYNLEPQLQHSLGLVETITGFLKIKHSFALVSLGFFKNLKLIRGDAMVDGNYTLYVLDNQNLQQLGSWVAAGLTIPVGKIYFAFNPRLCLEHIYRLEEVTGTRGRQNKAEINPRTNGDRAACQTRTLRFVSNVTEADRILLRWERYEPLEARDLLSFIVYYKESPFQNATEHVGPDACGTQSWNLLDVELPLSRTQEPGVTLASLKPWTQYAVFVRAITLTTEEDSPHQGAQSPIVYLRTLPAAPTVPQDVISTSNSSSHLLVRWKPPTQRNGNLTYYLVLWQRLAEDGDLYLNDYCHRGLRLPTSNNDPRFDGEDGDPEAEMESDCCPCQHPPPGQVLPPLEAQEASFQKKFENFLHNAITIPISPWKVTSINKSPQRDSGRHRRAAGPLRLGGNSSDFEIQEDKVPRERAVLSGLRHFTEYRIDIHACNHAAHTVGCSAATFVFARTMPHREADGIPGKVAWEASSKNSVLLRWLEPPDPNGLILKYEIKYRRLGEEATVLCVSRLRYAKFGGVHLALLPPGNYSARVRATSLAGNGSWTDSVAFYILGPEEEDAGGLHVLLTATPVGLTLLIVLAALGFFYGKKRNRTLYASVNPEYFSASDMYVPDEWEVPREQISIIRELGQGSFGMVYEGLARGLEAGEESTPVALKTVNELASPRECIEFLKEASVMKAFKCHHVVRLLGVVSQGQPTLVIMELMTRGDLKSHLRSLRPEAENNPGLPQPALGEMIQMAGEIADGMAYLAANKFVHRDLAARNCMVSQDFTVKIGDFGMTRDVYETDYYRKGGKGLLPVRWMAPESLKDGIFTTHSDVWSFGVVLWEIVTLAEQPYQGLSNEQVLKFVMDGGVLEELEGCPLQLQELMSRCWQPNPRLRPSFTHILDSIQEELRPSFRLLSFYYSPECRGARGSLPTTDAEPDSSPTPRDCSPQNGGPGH

ITK = ITK (Homo sapiens (Human), UniProt Q08881); assay: KINOMEscan kinase selectivity profiling; type: binding; details: read-out: Ambit KINOMEscan of compound I-5 at 10 μM (percent control %)
KIT = KIT (Homo sapiens (Human), UniProt P10721); assay: KINOMEscan kinase selectivity profiling; type: binding; details: read-out: Ambit KINOMEscan of compound I-5 at 10 μM (percent control %)
KIT(L576P) = KIT(L576P) (Homo sapiens (Human), UniProt P10721, L576P); assay: KINOMEscan kinase selectivity profiling; type: binding; details: read-out: Ambit KINOMEscan of compound I-5 at 10 μM (percent control %)
KIT(V559D) = KIT(V559D) (Homo sapiens (Human), UniProt P10721, V559D); assay: KINOMEscan kinase selectivity profiling; type: binding; details: read-out: Ambit KINOMEscan of compound I-5 at 10 μM (percent control %)
LYN = LYN (Homo sapiens (Human), UniProt P07948); assay: KINOMEscan kinase selectivity profiling; type: binding; details: read-out: Ambit KINOMEscan of compound I-5 at 10 μM (percent control %)
MAP4K2 = MAP4K2 (Homo sapiens (Human), UniProt Q12851); assay: KINOMEscan kinase selectivity profiling; type: binding; details: read-out: Ambit KINOMEscan of compound I-5 at 10 μM (percent control %)
MERTK = MERTK (Homo sapiens (Human), UniProt Q12866); assay: KINOMEscan kinase selectivity profiling; type: binding; details: read-out: Ambit KINOMEscan of compound I-5 at 10 μM (percent control %)
p38-delta = p38-delta (Homo sapiens (Human), UniProt O15264); assay: KINOMEscan kinase selectivity profiling; type: binding; details: read-out: Ambit KINOMEscan of compound I-5 at 10 μM (percent control %)
Chain of p38-delta (O15264 whole entry): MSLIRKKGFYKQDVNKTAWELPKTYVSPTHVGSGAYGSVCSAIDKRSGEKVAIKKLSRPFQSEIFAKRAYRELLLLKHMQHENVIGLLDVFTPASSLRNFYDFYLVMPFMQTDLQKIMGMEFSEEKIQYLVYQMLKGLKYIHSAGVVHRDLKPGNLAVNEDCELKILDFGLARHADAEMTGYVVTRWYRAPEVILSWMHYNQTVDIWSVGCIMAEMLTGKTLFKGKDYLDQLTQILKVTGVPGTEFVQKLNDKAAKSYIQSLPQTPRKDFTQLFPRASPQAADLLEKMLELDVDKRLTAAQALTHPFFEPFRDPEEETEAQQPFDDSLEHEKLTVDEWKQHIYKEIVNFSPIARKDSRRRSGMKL

PDGFRA = PDGFRA (Homo sapiens (Human), UniProt P16234); assay: KINOMEscan kinase selectivity profiling; type: binding; details: read-out: Ambit KINOMEscan of compound I-5 at 10 μM (percent control %)
PDGFRB = PDGFRB (Homo sapiens (Human), UniProt P09619); assay: KINOMEscan kinase selectivity profiling; type: binding; details: read-out: Ambit KINOMEscan of compound I-5 at 10 μM (percent control %)
PFTAIRE2 = PFTAIRE2 (Homo sapiens (Human), UniProt Q96Q40); assay: KINOMEscan kinase selectivity profiling; type: binding; details: read-out: Ambit KINOMEscan of compound I-5 at 10 μM (percent control %)
Chain of PFTAIRE2 (Q96Q40 whole entry): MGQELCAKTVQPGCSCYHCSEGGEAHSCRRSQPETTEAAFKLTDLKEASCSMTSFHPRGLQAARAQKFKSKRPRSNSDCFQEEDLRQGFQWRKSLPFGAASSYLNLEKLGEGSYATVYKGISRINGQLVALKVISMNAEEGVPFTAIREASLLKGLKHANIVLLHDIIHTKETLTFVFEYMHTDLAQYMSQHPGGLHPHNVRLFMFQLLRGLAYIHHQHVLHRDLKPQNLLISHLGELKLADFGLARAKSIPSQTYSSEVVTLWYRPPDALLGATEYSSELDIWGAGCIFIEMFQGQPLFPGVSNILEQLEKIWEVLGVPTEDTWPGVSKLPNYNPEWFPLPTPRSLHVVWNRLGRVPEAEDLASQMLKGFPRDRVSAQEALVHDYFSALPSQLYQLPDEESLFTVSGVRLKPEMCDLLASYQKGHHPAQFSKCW

PFTK1 = PFTK1 (Homo sapiens (Human), UniProt O94921); assay: KINOMEscan kinase selectivity profiling; type: binding; details: read-out: Ambit KINOMEscan of compound I-5 at 10 μM (percent control %)
RAF1 = RAF1 (Homo sapiens (Human), UniProt P04049); assay: KINOMEscan kinase selectivity profiling; type: binding; details: read-out: Ambit KINOMEscan of compound I-5 at 10 μM (percent control %)
RET = RET (Homo sapiens (Human), UniProt P07949); assay: KINOMEscan kinase selectivity profiling; type: binding; details: read-out: Ambit KINOMEscan of compound I-5 at 10 μM (percent control %)
RET(M918T) = RET(M918T) (Homo sapiens (Human), UniProt P07949, M918T); assay: KINOMEscan kinase selectivity profiling; type: binding; details: read-out: Ambit KINOMEscan of compound I-5 at 10 μM (percent control %)
Chain of RET(M918T) (P07949 29-1114 M918T): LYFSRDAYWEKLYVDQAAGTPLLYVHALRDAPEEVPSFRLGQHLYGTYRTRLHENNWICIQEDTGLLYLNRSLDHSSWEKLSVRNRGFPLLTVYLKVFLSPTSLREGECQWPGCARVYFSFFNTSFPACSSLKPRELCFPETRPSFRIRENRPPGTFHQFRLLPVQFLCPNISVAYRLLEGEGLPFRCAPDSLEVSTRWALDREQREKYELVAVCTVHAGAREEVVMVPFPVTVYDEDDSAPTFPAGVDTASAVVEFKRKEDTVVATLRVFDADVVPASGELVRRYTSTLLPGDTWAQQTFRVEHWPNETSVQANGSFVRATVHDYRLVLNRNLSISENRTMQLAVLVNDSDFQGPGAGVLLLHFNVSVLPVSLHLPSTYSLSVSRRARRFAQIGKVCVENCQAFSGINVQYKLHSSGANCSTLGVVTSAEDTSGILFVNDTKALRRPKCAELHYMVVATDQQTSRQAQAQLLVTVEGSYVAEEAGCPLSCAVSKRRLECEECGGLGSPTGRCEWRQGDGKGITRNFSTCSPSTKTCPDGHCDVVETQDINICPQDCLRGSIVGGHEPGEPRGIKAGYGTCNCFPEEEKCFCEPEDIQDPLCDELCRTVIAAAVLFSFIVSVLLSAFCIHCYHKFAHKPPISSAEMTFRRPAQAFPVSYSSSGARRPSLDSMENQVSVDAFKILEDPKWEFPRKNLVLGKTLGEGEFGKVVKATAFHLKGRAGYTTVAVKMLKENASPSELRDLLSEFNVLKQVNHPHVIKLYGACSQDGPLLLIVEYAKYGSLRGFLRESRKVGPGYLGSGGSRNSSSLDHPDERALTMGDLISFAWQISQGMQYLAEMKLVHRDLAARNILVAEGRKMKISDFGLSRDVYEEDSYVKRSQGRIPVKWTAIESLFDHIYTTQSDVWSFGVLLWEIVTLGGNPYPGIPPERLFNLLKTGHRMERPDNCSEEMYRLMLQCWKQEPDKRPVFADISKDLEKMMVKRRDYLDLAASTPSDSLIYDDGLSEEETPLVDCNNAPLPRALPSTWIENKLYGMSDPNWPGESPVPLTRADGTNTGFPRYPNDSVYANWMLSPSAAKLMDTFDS

RET(V804L) = RET(V804L) (Homo sapiens (Human), UniProt P07949, V804L); assay: KINOMEscan kinase selectivity profiling; type: binding; details: read-out: Ambit KINOMEscan of compound I-5 at 10 μM (percent control %)
RET(V804M) = RET(V804M) (Homo sapiens (Human), UniProt P07949, V804M); assay: KINOMEscan kinase selectivity profiling; type: binding; details: read-out: Ambit KINOMEscan of compound I-5 at 10 μM (percent control %)
RIPK1 = RIPK1 (Homo sapiens (Human), UniProt Q13546); assay: KINOMEscan kinase selectivity profiling; type: binding; details: read-out: Ambit KINOMEscan of compound I-5 at 10 μM (percent control %)
SRC = SRC (Homo sapiens (Human), UniProt P12931); assay: KINOMEscan kinase selectivity profiling; type: binding; details: read-out: Ambit KINOMEscan of compound I-5 at 10 μM (percent control %)
TAK1 = TAK1 (Homo sapiens (Human), UniProt O43318); assay: KINOMEscan kinase selectivity profiling; type: binding; details: read-out: Ambit KINOMEscan of compound I-5 at 10 μM (percent control %)
TAOK3 = TAOK3 (Homo sapiens (Human), UniProt Q9H2K8); assay: KINOMEscan kinase selectivity profiling; type: binding; details: read-out: Ambit KINOMEscan of compound I-5 at 10 μM (percent control %)
TIE1 = TIE1 (Homo sapiens (Human), UniProt P35590); assay: KINOMEscan kinase selectivity profiling; type: binding; details: read-out: Ambit KINOMEscan of compound I-5 at 10 μM (percent control %)
TIE2 = TIE2 (Homo sapiens (Human), UniProt Q02763); assay: KINOMEscan kinase selectivity profiling; type: binding; details: read-out: Ambit KINOMEscan of compound I-5 at 10 μM (percent control %)
TRKB = TRKB (Homo sapiens (Human), UniProt Q16620); assay: KINOMEscan kinase selectivity profiling; type: binding; details: read-out: Ambit KINOMEscan of compound I-5 at 10 μM (percent control %)
TRKC = TRKC (Homo sapiens (Human), UniProt Q16288); assay: KINOMEscan kinase selectivity profiling; type: binding; details: read-out: Ambit KINOMEscan of compound I-5 at 10 μM (percent control %)

`CCN1CCN(Cc2cc(NC(=O)c3ccc(C)c(-c4ccc5nc(NC(=O)C6CC6)sc5n4)c3)cc(C(F)(F)F)c2)CC1` [Compound I-5] showed an IC50 (JAK2) of 660 nM, a remaining binding at 10 µM (ABL1(Q252H)) of 0% and a remaining binding at 10 µM (ABL1(T315I)) of 0%. For the same compound, the remaining binding at 10 µM (ABL2) was 0%, the remaining binding at 10 µM (BRAF(V600E)) was 0% and the remaining binding at 10 µM (CDC2L2) was 0%. For the same compound, the remaining binding at 10 µM (CDKL3) was 0%, the remaining binding at 10 µM (CIT) was 0% and the remaining binding at 10 µM (CSF1R) was 0%. The remaining binding at 10 µM (EPHA4) was 0%, the remaining binding at 10 µM (EPHA6) was 0% and the remaining binding at 10 µM (EPHA8) was 0%. It also gave a remaining binding at 10 µM (EPHB1) of 0%, a remaining binding at 10 µM (EPHB2) of 0% and a remaining binding at 10 µM (EPHB4) of 0%. The remaining binding at 10 µM (FES) was 0%, the remaining binding at 10 µM (FGR) was 0% and the remaining binding at 10 µM (FLT4) was 0%. It also gave a remaining binding at 10 µM (HPK1) of 0%, a remaining binding at 10 µM (INSRR) of 0% and a remaining binding at 10 µM (ITK) of 0%. It also gave a remaining binding at 10 µM (KIT) of 0%, a remaining binding at 10 µM (KIT(L576P)) of 0% and a remaining binding at 10 µM (KIT(V559D)) of 0%. It also gave a remaining binding at 10 µM (LYN) of 0%, a remaining binding at 10 µM (MAP4K2) of 0% and a remaining binding at 10 µM (MERTK) of 0%. It also gave a remaining binding at 10 µM (p38-delta) of 0%, a remaining binding at 10 µM (PDGFRA) of 0% and a remaining binding at 10 µM (PDGFRB) of 0%. The remaining binding at 10 µM (PFTAIRE2) was 0%, the remaining binding at 10 µM (PFTK1) was 0% and the remaining binding at 10 µM (RAF1) was 0%. The remaining binding at 10 µM (RET) was 0%, the remaining binding at 10 µM (RET(M918T)) was 0% and the remaining binding at 10 µM (RET(V804L)) was 0%. It also gave a remaining binding at 10 µM (RET(V804M)) of 0%, a remaining binding at 10 µM (RIPK1) of 0% and a remaining binding at 10 µM (SRC) of 0%. The remaining binding at 10 µM (TAK1) was 0%, the remaining binding at 10 µM (TAOK3) was 0% and the remaining binding at 10 µM (TIE1) was 0%. For the same compound, the remaining binding at 10 µM (TIE2) was 0%, the remaining binding at 10 µM (TRKB) was 0% and the remaining binding at 10 µM (TRKC) was 0%.

From US12415816B2, “Benzothiazole derivatives and 7-aza-benzothiazole derivatives as janus kinase 2 inhibitors and uses thereof” (Dana-Farber Cancer Institute, Inc., priority 2018, dated 2025)
